“And” between values parts separate entries of the source, which are not always exact repeats. Equal values may be shown once. “Also recorded” adds a separate entry of the source.
How the values were obtained:
Type in all cases: cell-based, human
[1] = tested on: HEK-Blue hTLR4 cells; test: E. coli LPS- and P. gingivalis LPS-induced IL-8 by HEK-Blue hTLR4 cells (Example 3)
Experimental: (§1) Cells were grown to 70-80% confluent in a 96 well plate. 100 uL of a test sample was added to a well. Cells with test sample were incubated overnight. Media was collected from each well and transferred to a corresponding well in a 96-well plate. Assays to measure proinflammatory cytokines including IL-8 secretion were performed for each well.
(§2) Inflammation markers in supernatants collected from HEK-Blue cells co-incubated with Zinc and Zinc+LPS were quantified using Luminex Magpix instrument (MAGPIX-XPON42) and human 5-plex cytokine/chemokine Magnetic bead panel (Millipore HCYTOMAG-60K). The human 5-plex cytokine/chemokine Magnetic bead panel quantifies TNF-α, IL-6, IL-8, IL-1β and GM-CSF.
Experiments were conducted to identify compositions that inhibit E. coli LPS-induced IL-8 and P. gingivalis LPS-induced IL-8 by HEK-Blue hTLR4 cells. HEK-TLR4 cells in 96 well plates were contacted with 100 μl samples. IL-8 was detected as described above.

[2] = tested on: HEK-TLR4 cells; test: P. gingivalis LPS-induced cytokine secretion by HEK-TLR4 cells, Luminex 5-plex magnetic bead panel (Example 2)
Experimental: Commercially available HEK-Blue TLR4 cells (Invitrogen) are recombinant HEK 293 cells that have been transformed with DNA that encodes TLR4 that is expressed and present on the cell surface. HEK-Blue TLR4 cells are grown ion culture and used can be used in experimental assays to identify test compositions that modulate inflammation pathways stimulated by TLR4-LPS interaction.
Initial for LPS and zinc-containing starting solutions were made as follows. An LPS starting solution was prepared as follows: a […] solution of LPS was prepared using 2 μl of 1 mg/ml LPS and 10 ml media. Multiple zinc starting solutions were each prepared using media as diluent: a) 20 mM zinc oxide, b) 2 mM zinc oxide, c) 20 mM zinc citrate, d) 2 mM zinc citrate, e) 20 mM of a composition containing a 2:1 mixture of zinc oxide and zinc citrate and f) 2 mM of a composition containing a 2:1 mixture of zinc oxide and zinc citrate. The starting solutions were used to prepare various test samples.
In some embodiments, control assays include “Untreated”, in which eight Zinc test samples without LPS were made: […], 10 mM zinc oxide+zinc citrate, 1 mM zinc oxide+zinc citrate, 10 mM zinc oxide+zinc citrate+arginine and 1 mM zinc oxide+zinc citrate+arginine, The test samples without LPS were prepared by diluting the zinc starting solutions with equal parts media. Eight test samples with LPS were made: […], […], […], […], 10 mM zinc oxide+zinc citrate LPS, 1 mM zinc oxide+zinc citrate LPS, 10 mM zinc oxide+zinc citrate+arginine LPS and 1 mM zinc oxide+zinc citrate+arginine LPS. The test samples with LPS were prepared by diluting the zinc starting solutions with equal parts LPS starting solution.
as §1, §2
The Luminex Kit Procedure outlined in the instruction manual for each separate Luminex kit was performed on the supernatants collected from the HEK-Blue cells co-incubated with Zinc test solutions without LPS and Zinc test solutions plus LPS. Quality controls in range for the specified analytes were performed to ensure levels were within the acceptable range.
To run the Luminex Test, all necessary calibration and verification procedures as outlined by the MagPix and xPonent softwares were completed and the appropriate protocol for the assay was selected. The standards were verified to be correct and complete the plate layout of samples was verified. […] The “Avg. Result” was identified in the results generated.
Experiments were conducted to identify compositions that inhibit P. gingivalis LPS-induced IL-8, TNFα, GM-CSF, IL-1β and IL-6 by HEK-TLR4 cells. HEK-TLR4 cells in 96 well plates were contacted with 100 μl samples. IL-8, TNFα, GM-CSF, IL-1β and IL-6 were detected as described above.

[3] = tested on: HEK-Blue hTLR4 cells; test: IL-8 dose response in HEK-Blue hTLR4 cells with P.g. LPS 1 μg/ml and 3X-24X dilutions of simple solutions (Example 4)
Experimental: (§3) HEK-Blue hTLR4 cells (Invivogen, cat #hkb-htlr4) were cultured in a DMEM culture medium supplemented with 10% FBS and 1% penstrep at 37° C. with 5% CO2. LPS from Porphyromonas gingivalis (P.g. LPS; Invivogen, cat #tlrl-pglps and cat #tlrl-ppglps) activates TLR4 receptor and downstream inflammation in HEK-Blue hTLR4 cells. P.g. LPS is co-incubated with HEK-Blue hTLR4 cells in the absence or presence of the simple solutions. Standard and ultrapure P.g. LPS were both used due to ultrapure being a specific ligand for the TLR4 receptor while standard LPS is a ligand for both TLR2 and TLR4.
(§4) The simple solutions a) Zinc Oxide (ZnO), b) Zinc Citrate (ZnCitrate), c) Zinc Oxide+Zinc Citrate (Dual Zinc; DZ), d) Dual Zinc+Arginine (DZA, zinc oxide, zinc citrate and arginine), and e) L-Arginine (Arg) were diluted at different concentrations with culture medium.
2) experiments using 3×, 6×, 12×, and 24× dilution fold of the simple solutions (see Table 6 below).
(§5) HEK-Blue hTLR4 cells were plated in 96-well plates and grown until confluent at 37° C. and 5% CO2 in HEK-blue selection media (DMEM with 10% FBS, 1% penicillin-streptomycin, and antibiotics for HEK-blue selection (Invivogen, cat #hb-sel)). Cells were co-incubated overnight with varying concentrations of different zinc actives as well as arginine and stimulated with either 0.1 μg/mL standard P. gingivalis LPS or 1 μg/mL ultrapure P. gingivalis LPS. Cell supernatants were collected for human inflammation cytokine panels using Multiplex and ELISA analysis.
(§6) Multiplex analysis was performed using the MILLIPLEX MAP Human Cytokine/Chemokine Magnetic Bead Panel—Immunology Multiplex Assay for IL-1, IL-6, IL-8, TNFα, and GM-CSF (Millipore Sigma, cat #HCYTOMAG-60K).
In order to understand the role of Arginine in the inhibition of LPS induced inflammation, a dose response experiment was performed using ultrapure P.g. LPS, which only specifically targets TLR4 receptor, in order to maximize the activation of NF-kB and expression of IL-8.
The testing samples were prepared as the stock simple solutions. […] The first serial dilution was made 3 times with water, a dilution factor simulating dilution of toothpastes while brushing. Additional serial dilutions were made by 2-fold of the first dilution to study dose response effect.

[4] = tested on: HEK-Blue hTLR4 cells; test: IL-8 in HEK-Blue hTLR4 cell supernatants with standard P.g. LPS and simple solutions at 1 mM vs 10 mM total zinc (Example 4)
Experimental: as §3, §4
1) experiments using 1 mM vs 10 mM total zinc; and
as §5, §6
Testing was performed using total zinc concentrations to normalize the amount the zinc applied in the cell culture medium during co-incubation. Two concentrations of total zinc ion are based on the potential amount of zinc retained on the mouth soft tissue surface.

[5] = 300 ppm with 0.1μ/ml P. gingivalis LPS
[6] = 600 ppm with 0.1μ/ml P. gingivalis LPS
[7] = P. gingivalis LPS, 300 and 600 ppm
[8] = 3X dilution of stock simple solution (Table 6) with P.g. LPS (1 μg/ml)
[9] = 6X dilution of stock simple solution (Table 6) with P.g. LPS (1 μg/ml)
[10] = 12X dilution of stock simple solution (Table 6) with P.g. LPS (1 μg/ml)
[11] = 24X dilution of stock simple solution (Table 6) with P.g. LPS (1 μg/ml)
[12] = 1 mM total zinc with standard P.g. LPS (0.1 μg/ml)
[13] = 10 mM total zinc with standard P.g. LPS (0.1 μg/ml)

Q: What does the source list for [O]=[Zn] [ZnO, zinc oxide]?
A: IL-8 (average) ([1]; 100 ppm with 1.0 μg/ml E. coli LPS): 317267829 pg/mL; IL-8 (average) ([1]; 100 ppm with 1.0 μg/ml P. gingivalis LPS): 210374063 pg/mL; IL-8 (average) ([1]; 100 ppm, without LPS): 610.1 pg/mL; inhibitory effect on P. gingivalis LPS-induced IL-8 (in words) ([1]; 500 ppm and 100 ppm): inhibitory effect; IL-8 (average) ([1]; 500 ppm with 1.0 μg/ml E. coli LPS): 564963251 pg/mL; IL-8 (average) ([1]; 500 ppm with 1.0 μg/ml P. gingivalis LPS): 275576697 pg/mL; IL-8 (average) ([1]; 500 ppm, without LPS): 448.6 pg/mL; GM-CSF (raw data, single replicate) [2, 5]: 0.5501 pg/ml (2×) and 0.633 pg/ml and 1.577 pg/ml; IL-1β (raw data, single replicate) [2, 5]: 6.491 pg/ml (2×) and 5.944 pg/ml and 6.674 pg/ml; IL-6 (raw data, single replicate) [2, 5]: 3.316 pg/mL and 3.775 pg/mL and 3.171 pg/mL and 4.174 pg/mL; IL-8 (average result) [2, 5]: 24200.24439257880 pg/mL; IL-8 (raw data, single replicate) [2, 5]: 31890.081340469700 pg/mL and 39006.703793117100 pg/mL and 13910.330133842900 pg/mL and 11993.862302885500 pg/mL; TNF-α (average result) [2, 5]: 42.3 pg/mL; TNFα (raw data, single replicate) [2, 5]: 41.56 pg/mL and 39.8 pg/mL and 38.16 pg/mL and 49.7 pg/mL; GM-CSF (raw data, single replicate) ([2]; 300 ppm, without LPS): <3.2 pg/ml (2×) and 0.3057 pg/ml and 0.5501 pg/ml; IL-1β (raw data, single replicate) ([2]; 300 ppm, without LPS): 0.4614 pg/ml (2×) and 0.8647 pg/ml and 1.507 pg/ml; IL-6 (raw data, single replicate) ([2]; 300 ppm, without LPS): 0.4605 pg/mL and 0.6587 pg/mL and 0.9797 pg/mL and 1.293 pg/mL; IL-8 (average result) ([2]; 300 ppm, without LPS): 452.8 pg/mL; IL-8 (raw data, single replicate) ([2]; 300 ppm, without LPS): 340.2 pg/mL and 393.1 pg/mL and 458.8 pg/mL and 619.1 pg/mL; TNF-α (average result) ([2]; 300 ppm, without LPS): 1.202 pg/mL; TNFα (raw data, single replicate) ([2]; 300 ppm, without LPS): 0.9029 pg/mL and 1.031 pg/mL and 1.244 pg/mL and 1.631 pg/mL; GM-CSF (raw data, single replicate) [2, 6]: 1.142 pg/mL and 1.315 pg/mL and 0.3863 pg/mL and 0.3057 pg/mL; IL-1β (raw data, single replicate) [2, 6]: 6.735 pg/mL and 6.309 pg/mL and 6.035 pg/mL and 5.701 pg/mL; IL-6 (raw data, single replicate) [2, 6]: 2.617 pg/mL and 2.44 pg/mL and 1.782 pg/mL and 2.023 pg/mL; IL-8 (average result) [2, 6]: 17453.90185032290 pg/mL; IL-8 (raw data, single replicate) [2, 6]: 21030.114488079100 pg/mL and 14514.694724312700 pg/mL and 20392.976523123200 pg/mL and 13877.821665776500 pg/mL; TNF-α (average result) [2, 6]: 26.47 pg/mL; TNFα (raw data, single replicate) [2, 6]: 43.99 pg/mL and 24.75 pg/mL and 19.13 pg/mL and 18.02 pg/mL; GM-CSF (raw data, single replicate) ([2]; 600 ppm, without LPS): 0.8854 pg/ml and 0.2263 pg/ml and 0.001671 pg/ml (2×); IL-1β (raw data, single replicate) ([2]; 600 ppm, without LPS): 2.871 pg/mL and 1.039 pg/mL and 0.4329 pg/mL and 0.4044 pg/mL; IL-6 (raw data, single replicate) ([2]; 600 ppm, without LPS): 1.011 pg/ml and 0.3248 pg/ml and <3.2 pg/ml (2×); IL-8 (average result) ([2]; 600 ppm, without LPS): 558.8 pg/mL; IL-8 (raw data, single replicate) ([2]; 600 ppm, without LPS): 993.3 pg/mL and 512.5 pg/mL and 355.4 pg/mL and 374 pg/mL; TNF-α (average result) ([2]; 600 ppm, without LPS): 2.405 pg/mL; TNFα (raw data, single replicate) ([2]; 600 ppm, without LPS): 3.729 pg/mL and 2.195 pg/mL and 1.804 pg/mL and 1.891 pg/mL; effect on LPS-induced TNFα (in words) [2, 7]: reduced LPS-induced TNFα; also recorded: significantly reduced; effect on induction of IL-8 by LPS (in words) [2, 7]: significantly reduced; also recorded: comparatively small effect; IL-8 Concentration, Average [3, 8]: 29.0 pg/mL; IL-8 Concentration, replicate [3, 8]: 32.6 pg/mL and 25.5 pg/mL; IL-8 Concentration, Average [3, 9]: 510.0 pg/mL; IL-8 Concentration, replicate [3, 9]: 646.1 pg/mL and 374.0 pg/mL; IL-8 Concentration, Average [3, 10]: 2658.0 pg/mL; IL-8 Concentration, replicate [3, 10]: 2699.5 pg/mL and 2616.4 pg/mL; IL-8 Concentration, Average [3, 11]: 3015.5 pg/mL; IL-8 Concentration, replicate [3, 11]: 3010.4 pg/mL and 3020.6 pg/mL; inhibition of IL-8 (in words) ([3]; when dilution folds increase): lose the inhibition of IL-8 gradually; IL-8 Concentration, Average [4, 12]: 39.5 pg/mL; IL-8 Concentration, replicate [4, 12]: 42.95 pg/mL and 30.75 pg/mL and 35.45 pg/mL and 48.85 pg/mL; IL-8 Concentration, Average [4, 13]: 18.9 pg/mL; IL-8 Concentration, replicate [4, 13]: 20.35 pg/mL and 27.65 pg/mL and 10.45 pg/mL and 16.95 pg/mL; IL-8 induced by co-incubation with P.g. LPS (in words) ([4]; at both 1 mM and 10 mM): reduced

From patent US20210318306A1, “Compositions for and Methods of Neutralizing Lipopolysaccharide Toxicity and Methods of Identifying the Same” (priority 2020, published 2021)
